From US20210196654A1, “METHOD OF TREATING CONDITIONS” (Clexio Biosciences Ltd., priority 2019, published 2021)

Legend:
[1] = Repeated dose 28 day toxicokinetics; details: for AUC(0-t): AUC0-t
Protocol: The objective of the study was to assess the potential toxicity, neurobehavioral effects, and toxicokinetics (TK) of esketamine when administered orally, via gavage, to Sprague Dawley rats for 28 days and to evaluate recovery during a 14-day drug-free period. Fifty male and 50 female rats were randomized into 4 groups (15/sex/Groups 1 and 4; 10/sex/Groups 2 and 3). Esketamine was administered via oral gavage once daily for 28 consecutive days to males at 0 (vehicle control), 6, 10 or 30 mg/kg/day and females at 0 (vehicle control), 2, 10 or 20 mg/kg/day in a dose volume of 10 mL/kg. Animals were observed until euthanized and necropsied on Day 29 (10/sex/group) or 43 (5/sex from Groups 1 and 4). Toxicity was evaluated based on mortality, clinical observations, body weights, food consumption, ophthalmology, motor activity, functional observational battery, clinical pathology (clinical chemistry, hematology, coagulation and urinalysis), organ weights, anatomic (macroscopic or microscopic) pathology. Toxicokinetic animals (3/sex/Group 1; 6/sex/Groups 2, 3, and 4) were similarly dosed and bled on Day 1 and during Week 4 for toxicokinetic analysis.

[2] = system: healthy male and female subjects; assay: Single dose crossover study in healthy volunteers, adverse events; type: in vivo, human
Excerpt: A total of 128 TEAEs (treatment-emergent adverse event) were reported by 15 of 16 (94%) subjects of which 79 TEAEs reported by 14 of 16 (88%) subjects were to be related to the study drug. Overall, a total of 14 of 128 TEAEs reported by 4 (25%) subjects were of moderate severity and 114 of 128 TEAEs reported by 15 (94%) subjects were of mild severity. […] The most frequently occurring adverse events (reported more than twice) were headache, dizziness, hypokinesia, feeling abnormal, fatigue, euphoric mood inappropriate affect, nausea and hyperhidrosis. Table 4 presents the frequency of the most frequently reported related TEAEs as a percentage of the subjects that experienced an adverse effect per treatment.

[3] = Oye et al (1992); cited from earlier work
liver of Crl:CD(SD) rats = assay: In vivo single cell gel electrophoresis (comet) assay in liver; details: for lower benchmark dose (BMDL50): single slide median Tail Intensity, PROAST
[4] = male, Sprague Dawley, rat, in vivo, po, 30 mg/kg, Day 1, male rats, 30 mg/kg oral
[5] = male, Sprague Dawley, rat, in vivo, po, 30 mg/kg, Day 28, male rats, 30 mg/kg oral

## CN[C@]1(c2ccccc2Cl)CCCCC1=O [esketamine, (2S)-2-(2-Chlorophenyl)-2-(methylamino) cyclohexanone]
[1]; male, Sprague Dawley, rat, in vivo, po, 10 mg/kg, t1/2, Day 28, male rats, 10 mg/kg oral
  half-life: 36 min
[1]; male, Sprague Dawley, rat, in vivo, po, 10 mg/kg, Day 1, male rats, 10 mg/kg oral
  Tmax: 10.2 min
[1]; male, Sprague Dawley, rat, in vivo, po, 10 mg/kg, Day 28, male rats, 10 mg/kg oral
  Tmax: 10.2 min
[1]; male, Sprague Dawley, rat, in vivo, po, 30 mg/kg
  AUC(0-inf): 585 ng·h/mL
[1]; [4]
  AUC(0-t): 580 ng·h/mL
  Cmax: 296 ng/mL
  Tmax: 10.2 min
[1]; [5]
  AUC(0-t): 575 ng·h/mL
  Cmax: 398 ng/mL
  Tmax: 30 min
[1]; male, Sprague Dawley, rat, in vivo, po, 30 mg/kg, t1/2, Day 1, male rats, 30 mg/kg oral
  half-life: 72 min
[1]; male, Sprague Dawley, rat, in vivo, po, 30 mg/kg, t1/2, Day 28, male rats, 30 mg/kg oral
  half-life: 90 min
[1]; males, 6 to 30 mg/kg/day
  exposure increase with dose: generally dose-proportional
[2]; 0.3 mg/kg iv
  Dizziness, related TEAE, percentage of subjects: 6%
  Euphoric mood, related TEAE, percentage of subjects: 19%
  Fatigue, related TEAE, percentage of subjects: 6%
  Feeling abnormal, related TEAE, percentage of subjects: 13%
  Headache, related TEAE, percentage of subjects: 19%
  Hypokinesia, related TEAE, percentage of subjects: 6%
  Inappropriate affect, related TEAE, percentage of subjects: 6%
  Nausea, related TEAE, percentage of subjects: 6%
[2]; 20 mg oral solution
  Feeling abnormal, related TEAE, percentage of subjects: 19%
  Headache, related TEAE, percentage of subjects: 19%
  Inappropriate affect, related TEAE, percentage of subjects: 6%
[2]; 20 mg oral tablet
  Dizziness, related TEAE, percentage of subjects: 13%
  Fatigue, related TEAE, percentage of subjects: 7%
  Feeling abnormal, related TEAE, percentage of subjects: 7%
  Hyperhidrosis, related TEAE, percentage of subjects: 7%
[2]; 100 mg oral tablet
  Dizziness, related TEAE, percentage of subjects: 13%
  Euphoric mood, related TEAE, percentage of subjects: 13%
  Feeling abnormal, related TEAE, percentage of subjects: 20%
  Headache, related TEAE, percentage of subjects: 13%
  Hyperhidrosis, related TEAE, percentage of subjects: 7%
  Hypokinesia, related TEAE, percentage of subjects: 13%
  Inappropriate affect, related TEAE, percentage of subjects: 7%
  Nausea, related TEAE, percentage of subjects: 20%
[2]; 4 subjects
  subjects reporting TEAEs of moderate severity: 25%
[2]; 14 of 16 subjects
  subjects reporting TEAEs related to the study drug: 88%
[2]; 15 of 16 subjects
  subjects reporting TEAEs: 94%
[2]; 15 subjects
  subjects reporting TEAEs of mild severity: 94%
[2]; 15 subjects who completed the study
  tolerability: generally well tolerated
[2]; all treatments
  TEAEs related to the study drug: 79
  severe TEAEs or SAEs: No severe TEAEs or SAEs were reported
[2]; all treatments, 16 subjects
  total TEAEs reported: 128
[2]; of 128 TEAEs
  TEAEs of mild severity: 114
  TEAEs of moderate severity: 14
[3]
  potency relative to (R)-ketamine in reducing pain perception and in causing auditory and visual disturbances: 4 times
Liver of Crl:CD(SD) rats; after 3 doses
  macroscopic examination: no test item related lesions
Liver of Crl:CD(SD) rats; female rats, 25 and 50 mg/kg/day
  group mean and median % TI values vs historical control range: outside of the current vehicle historical control range
Liver of Crl:CD(SD) rats; female rats, 25 and 50 mg/kg/day oral, 3 doses, p<0.001
  median % TI in liver vs vehicle control: Statistically significant increases
Liver of Crl:CD(SD) rats; female rats
  lower benchmark dose (BMDL50): 9.83 mg/kg/day
Liver of Crl:CD(SD) rats; male and female rats, oral gavage
  DNA strand breaks in the liver, conclusion: evidence of causing an increase in DNA strand breaks
Liver of Crl:CD(SD) rats; male or female rats, any dose level
  Hedgehog cells in liver: No Hedgehog cells were observed
Liver of Crl:CD(SD) rats; male rats, 75 mg/kg/day
  group mean and median % TI values vs historical control range: outside of the current vehicle historical control range
Liver of Crl:CD(SD) rats; male rats, 75 mg/kg/day oral, 3 doses, p<0.001
  median % tail intensity (TI) in liver vs vehicle control: Statistically significant increases
Liver of Crl:CD(SD) rats; male rats
  lower benchmark dose (BMDL50): 27.31 mg/kg/day
Liver of Crl:CD(SD) rats; some male animals, 75 mg/kg/day
  liver histopathological examination: Increased hepatocellular mitotic figures
